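Compound exposure: 48 hours, 5 concentrations, 96-well plates. GI50 = concentration required for 50% inhibition of growth. TGI: concentration producing complete growth inhibition.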
How the values were obtained:
Test in all cases: DTP human tumour cell line panel, 48 h
SF-268 CNS = system: SF-268 CNS
DU-145 prostate = system: DU-145 prostate
CAKI-1 renal = system: CAKI-1 renal
UO-31 renal = system: UO-31 renal
HS 578T breast = system: HS 578T breast
HCT-116 colon = system: HCT-116 colon
EKVX NSCLC = system: EKVX NSCLC
IGROV1 ovarian = system: IGROV1 ovarian
PC-3 prostate = system: PC-3 prostate
SR leukemia = system: SR leukemia

## NC1=C(Br)C(=O)c2ncccc2C1=O
SF-268 CNS
  TGI: 1920 nM
DU-145 prostate
  GI50: 709 nM
  TGI: 2140 nM
CAKI-1 renal
  TGI: 2840 nM
UO-31 renal
  TGI: 1070 nM
HS 578T breast
  GI50: 370 nM
  TGI: 2840 nM
HCT-116 colon
  TGI: 807 nM
EKVX NSCLC
  TGI: 3020 nM
IGROV1 ovarian
  TGI: 2620 nM
PC-3 prostate
  GI50: 1650 nM
  TGI: 9640 nM
SR leukemia
  TGI: 1840 nM

## O=C(CCCCCCSc1nc(-c2ccccc2)cc(-c2ccccc2)n1)NO
SF-268 CNS
  GI50: 2700 nM
  TGI: 7420 nM
DU-145 prostate
  GI50: 2440 nM
  TGI: 10600 nM
CAKI-1 renal
  GI50: 1560 nM
  TGI: 6390 nM
UO-31 renal
  GI50: 1090 nM
  TGI: 3850 nM
HS 578T breast
  GI50: 1560 nM
  TGI: 14500 nM
HCT-116 colon
  GI50: 813 nM
  TGI: 10700 nM
EKVX NSCLC
  GI50: 3960 nM
  TGI: 17200 nM
IGROV1 ovarian
  GI50: 2250 nM
  TGI: 10300 nM
PC-3 prostate
  GI50: 2240 nM
  TGI: 13400 nM
SR leukemia
  GI50: 322 nM
  TGI: 3870 nM

## C/C(=C\c1ccn(-c2ccc(N)c(F)c2)n1)[C@@H]1C[C@@H]2O[C@]2(C)CCC[C@H](C)[C@H](O)[C@@H](C)C(=O)C(C)(C)[C@@H](O)CC(=O)O1
SF-268 CNS
  GI50: 41.8 nM
  TGI: > 50000 nM
DU-145 prostate
  GI50: 15.5 nM
  TGI: 121 nM
CAKI-1 renal
  GI50: 80.2 nM
  TGI: > 50000 nM
UO-31 renal
  GI50: 98.2 nM
  TGI: > 50000 nM
HS 578T breast
  GI50: 10.8 nM
HCT-116 colon
  GI50: 7.96 nM
  TGI: > 50000 nM
EKVX NSCLC
  GI50: 171 nM
  TGI: > 50000 nM
IGROV1 ovarian
  GI50: 59.9 nM
  TGI: > 50000 nM
PC-3 prostate
  GI50: 13.9 nM
  TGI: > 50000 nM
SR leukemia
  GI50: 9.15 nM
  TGI: > 50000 nM

## N=c1c2c(-c3ccccc3)c(-c3ccccc3)n(Cc3ccccc3)c2ncn1CCCO
SF-268 CNS
  GI50: 894 nM
  TGI: 20800 nM
DU-145 prostate
  GI50: 3140 nM
  TGI: 19100 nM
CAKI-1 renal
  GI50: 692 nM
  TGI: 6570 nM
UO-31 renal
  GI50: 2240 nM
  TGI: 16500 nM
HS 578T breast
  GI50: 8360 nM
  TGI: > 55900 nM
HCT-116 colon
  GI50: 406 nM
  TGI: 4840 nM
EKVX NSCLC
  GI50: 4400 nM
  TGI: 21300 nM
IGROV1 ovarian
  GI50: 2080 nM
  TGI: 28100 nM
PC-3 prostate
  GI50: 1620 nM
  TGI: 12200 nM
SR leukemia
  GI50: 268 nM
  TGI: 6400 nM

## NC(=O)c1oc([N+](=O)[O-])c(-c2ccccc2)c1-c1ccccc1
SF-268 CNS
  TGI: > 100000 nM
DU-145 prostate
  TGI: 93400 nM
CAKI-1 renal
  TGI: 48100 nM
UO-31 renal
  TGI: 52200 nM
HS 578T breast
  TGI: 28200 nM
HCT-116 colon
  TGI: 36000 nM
EKVX NSCLC
  TGI: 48400 nM
IGROV1 ovarian
  TGI: 31500 nM
PC-3 prostate
  TGI: 47900 nM
SR leukemia
  TGI: 34200 nM

## CN(CC(=O)O)c1ccc(/C=C/c2ccnc3ccccc23)cc1
SF-268 CNS
  TGI: 61100 nM
DU-145 prostate
  TGI: > 100000 nM
CAKI-1 renal
  TGI: 66100 nM
UO-31 renal
  TGI: 54000 nM
HS 578T breast
  TGI: 75000 nM
HCT-116 colon
  TGI: 69800 nM
EKVX NSCLC
  TGI: 30800 nM
IGROV1 ovarian
  TGI: 39400 nM
PC-3 prostate
  TGI: > 100000 nM
SR leukemia
  TGI: 33700 nM

## C[C@H]1[C@H](C)CC[C@]2(C(=O)N3CCN(C)CC3)CC[C@]3(C)C(=CC[C@@H]4[C@@]5(C)C/C(=C/c6cccnc6)C(=O)C(C)(C)[C@@H]5CC[C@]43C)[C@H]12
SF-268 CNS
  GI50: 1470 nM
  TGI: 3050 nM
DU-145 prostate
  GI50: 1290 nM
  TGI: 2650 nM
CAKI-1 renal
  GI50: 1220 nM
  TGI: 2460 nM
UO-31 renal
  GI50: 775 nM
  TGI: 2160 nM
HS 578T breast
  GI50: 1430 nM
  TGI: 5400 nM
HCT-116 colon
  GI50: 669 nM
  TGI: 1890 nM
EKVX NSCLC
  GI50: 1590 nM
  TGI: 2990 nM
IGROV1 ovarian
  GI50: 1520 nM
  TGI: 3310 nM
PC-3 prostate
  GI50: 541 nM
  TGI: 1850 nM
SR leukemia
  GI50: 1370 nM
  TGI: > 100000 nM
